In patent US8470357B2, “Methods of treatment with Syk inhibitors” (Portola Pharmaceuticals, Inc., priority 2004, dated 2013):

Columns and labels:
[1] = test system: leukocyte rolling on activated, collagen-adhering platelets; assay: Recruitment of leukocytes to adherent, activated platelets under shear; type: cell-based; settings: increasing concentrations; citrated human blood with 2.5 μM Integrilin, type III collagen, 10 minutes, shear 650/sec (FIG. 3)
Experimental: Briefly, human blood, anticoagulated with citrate in the presence of 2.5 μM Integrilin, was exposed for 10 minutes to type III collagen at a shear rate of 650/sec.

[2] = test system: leukocyte adhesion to IL-1β-activated human umbilical endothelial cells; assay: Recruitment of leukocytes to activated endothelial cells under shear; type: cell-based; settings: 25 or 50 μM; citrated human blood, IL-1β-activated endothelial cells, shear 650/sec (FIG. 4)
Description: Briefly, cultured monolayers of human umbilical endothelial cells were activated by exposure to IL-1β for 24 hrs. Human blood, anticoagulated with citrate, was exposed to the activated endothelial cells at a shear rate of 650/sec for the time indicated.

[3] = test system: platelet thrombus formation on type III collagen; assay: Platelet thrombus formation on type III collagen under shear; type: cell-based, human
Experimental: Briefly, unanticoagulated human blood was exposed to type III collagen for 4 minutes at a rate of shear (e.g., about 850/sec.) equivalent to that encountered in coronary arteries.

## CC(=O)N(C)c1ccc(Nc2nc(NC3CCC3)c3[nH]cnc3n2)cc1.Cl [NVP-QAB205]
[1]
  inhibition of leukocyte rolling: caused inhibition of leukocyte rolling
[2]
  inhibition of leukocyte adhesion to activated endothelial cells: marked inhibition of leukocyte adhesion
[3]; at 5, 10, and 25 μM (see FIG. 2)
  platelet adhesion: did not completely block platelet adhesion
[3]; increasing concentrations, unanticoagulated human blood, type III collagen, 4 minutes, shear about 850/sec (FIG. 2)
  inhibition of thrombus formation: caused inhibition of thrombus formation
